Reference: patent publication US12679811B2, “Microcrystalline diketopiperazine compositions and methods” (MannKind Corporation, priority 2013, dated 2026)

Test: Solubility of FDKP as a function of pH
Type: physicochemical

- solubility (at neutral or basic pH): readily soluble
- solubility (in acid): low solubility
SMILES: O=C(O)/C=C/C(=O)NCCCCC1NC(=O)C(CCCCNC(=O)/C=C/C(=O)O)NC1=O (centres unmarked) [FDKP, 3,6-bis(N-fumaryl-4-aminobutyl)-2,5-diketopiperazine]
